The values that follow come from patent publication US10201530B2, “Treatment of BRCA1-defective cancer or resistant cancers” (City of Hope, priority 2014, dated 2019).

The subject of one series is MCF-7. Put plainly: Cytotoxicity, MCF-7 cells. Format: cell-based, human. The settings on record: Homo sapiens, MCF7; MCF-7, ER+ PR(+). How it is done:
(§1) All cell lines were acquired from the American Type Culture Collection (Manassas, Va., USA). Cells were maintained in RPMI 1640 medium (Mediatech) with 10% fetal bovine serum, 2 mM glutamine, and 100 U of penicillin and 100 μg of streptomycin per ml of medium (Sigma) at 37° C. in 5% CO2. To isolate HCC1437+BRCA1 cells, parental HCC1937 cells were transfected with pcDNA3.1 plasmid expressing full-length BRCA1 cDNA. Stable transfectant clones were selected and used for drug sensitivity assays. For stable transfection, cells at 30-40% confluence were incubated overnight with […] of plasmid DNA, using FUGENE® 6 transfectin reagent (Roche Molecular Biochemical, Monza, Italy) according to the manufacturer's instructions. Cells were then selected in puromycin (1 μg/ml) (Invitrogen life Technologies, La Jolla, Calif., USA.) After 20 to 30 days, viable puromycin-resistant colonies from HCC1937 transfections were expanded and screened. The clones that stably expressed […] and retained growth potential were assayed for BRCA1 expression by Western blot analysis. By Western blot analysis, we evaluated the restoration of BRCA1 expression in the puromycin-resistant cDNA/transfectant cells.
The MTT cytotoxicity assay was performed by incubating with MTT and monitoring the MTT formazan formed by viable cells with a microplate reader at a wavelength of 560 nm; the survival, ratio was determined using the formula: (Atest−Ablank)/(Acontrol−Ablank)×100%. The cytotoxicity was determined in 96-well plates using the semiautomatic fluorescence-based Digital Imaging Microscopy System (DIMSCAN). DIMSCAN uses digital imaging microscopy to quantify viable cells, which selectively accumulate FDA (fluorescein diacetate; Alfa Aesar, Ward Hill, Mass.). DIMSCAN is capable of measuring cytotoxicity over a 4 log dynamic range by quantifying total fluorescence per well (which is proportional to the number of viable cells) after elimination of the background fluorescence by digital thresholding and eosin Y (Mallinckrodt Baker, Center Valley, Pa.) quenching. […]

In another series the test system is zebrafish embryos. Briefly: Zebrafish genotoxicity assay. Format: in vivo, Danio rerio. The settings on record: wild-type zebrafish embryos, COH29 0-100 μM. The protocol: Zebrafish (Danio rerio) were obtained from zebrafish Core facility of Taipei Medical University and maintained at 28° C. on a 14 h light/10 h dark cycle. Embryos were incubated at 28° C. and different developmental stages were determined as described (25). Wild-type embryos were treated with different concentrations of HU (0, 5, […], 20, 50 mM) or COH29 (0, 10, 20, 50, 100 μM) at 20 hpf to evaluate the mutagenic effect. Fifteen embryos were treated per well condition. […] Embryos were observed using an Olympus IX70-FLA inverted fluorescence microscope. Images were taken using SPOT digital camera system (Diagnostic Instruments, Sterling Heights, Mich., USA) and assembled with ImageJ software (26).

Another series deals with NHEJ pathway. Briefly: NHEJ DNA repair, GFP-based chromosomal reporter EJ5-GFP. Type of series: cell-based. The settings on record: EJ5-GFP reporter cells, 24 h. The protocol: The EJ2 cells were generated to evaluate Alt-NHEJ through monitoring the fluorescence intensity of GFP and EJ5 cells were used to determine NJEJ as described previously. (23) Cells were seeded into 6-well plate and treated with COH29 or cisplatin at different concentration for 24 hours. The cells were then trypsinized, washed, and analyzed by flow cytometry.

In the next series the test system is KB-Gem. Briefly: Cytotoxicity, KB-Gem cells. The following applies: Homo sapiens, gemcitabine-resistant, read-out: IC50, mean ± SEM. Format: cell-based, human. How it is done: as §1
The MTT cytotoxicity assay was performed by incubating with MTT and monitoring the MTT formazan formed by viable cells with a microplate reader at a wavelength of 560 nm; the survival, ratio was determined using the formula: (Atest−Ablank)/(Acontrol−Ablank)×100%. The cytotoxicity was determined in 96-well plates using the semiautomatic fluorescence-based Digital Imaging Microscopy System (DIMSCAN). DIMSCAN uses digital imaging microscopy to quantify viable cells, which selectively accumulate FDA (fluorescein diacetate; Alfa Aesar, Ward Hill, Mass.). DIMSCAN is capable of measuring cytotoxicity over a 4 log dynamic range by quantifying total fluorescence per well (which is proportional to the number of viable cells) after elimination of the background fluorescence by digital thresholding and eosin Y (Mallinckrodt Baker, Center Valley, Pa.) quenching. Cells were seeded into 96-well plates in 100 μL of complete medium at 2,000 to 5,000 cells per well depending on cell line growth rate. After overnight incubation, test compound was added to each well at various concentrations in 50 μL of culture medium. After incubation with the drugs for 96 hours at 37° C., FDA (final concentration: […]) and eosin Y [final concentration: 0.1% (w/v)] were added to each well and the cells were incubated for an additional 20 minutes at 37° C. Total fluorescence per well was then measured using DIMSCAN, and the results were expressed as the ratio of the fluorescence in treated wells to the fluorescence in untreated wells (survival fraction).

The term IC50 denotes the concentration that gives 50% inhibition. On to `O=C(Nc1nc(-c2ccc(O)c(O)c2)c(-c2ccccc2)s1)c1ccc(O)c(O)c1` [COH29], for which the 50% inhibitory concentration (IC50) in the series with MCF-7 was 17.6 ± 1.54 µM; in the series with KB-Gem, 7.5 ± 0.29 µM. The viability result in the series on zebrafish embryos is listed as “no developmental defects (FIG. 5C) or decrease in viability”. In the series on zebrafish embryos (HU 0-50 mM), the developmental defects entry is “no developmental defects”. The NHEJ repair efficiency result in the series with NHEJ pathway is listed as “little effect on NHEJ repair”.
